Assays:
[1] = tested on: bedstraw; test: Test B pre/postemergence bedstraw; assay type: in vivo, Galium aparine
How it was run: (§1)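 Response is a visual 0-to-10 score relative to untreated plants, where 0 means no effect and 10 means complete control, taken twelve to sixteen days after application. Treatments went onto soil at planting and onto foliage of 1- to 4-leaf plants, using a surfactant-containing non-phytotoxic solvent.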

[2] = tested on: blackgrass; test: Test B pre/postemergence blackgrass; assay type: in vivo, Alopecurus myosuroides
How it was run: as §1

[3] = tested on: surinam grass; test: Test B pre/postemergence surinam grass; assay type: in vivo, Brachiaria decumbens
How it was run: as §1

[4] = tested on: corn; test: Test B pre/postemergence corn; assay type: in vivo, Zea mays
How it was run: as §1

[5] = tested on: giant foxtail; test: Test B pre/postemergence giant foxtail; assay type: in vivo, Setaria faberii
How it was run: as §1

[6] = tested on: morningglory; test: Test B pre/postemergence morningglory; assay type: in vivo, Ipomoea hederacea
How it was run: as §1

[7] = tested on: pigweed; test: Test B pre/postemergence pigweed; assay type: in vivo, Amaranthus retroflexus
How it was run: as §1

[8] = tested on: rape; test: Test B pre/postemergence rape; assay type: in vivo, Brassica napus
How it was run: as §1

[9] = tested on: soybean; test: Test B pre/postemergence soybean; assay type: in vivo, Glycine max
How it was run: as §1

[10] = tested on: sugar beet; test: Test B pre/postemergence sugar beet; assay type: in vivo, Beta vulgaris
How it was run: as §1

[11] = tested on: velvetleaf; test: Test B pre/postemergence velvetleaf; assay type: in vivo, Abutilon theophrasti
How it was run: as §1

[12] = tested on: purple nutsedge; test: Test B pre/postemergence purple nutsedge; assay type: in vivo, Cyperus rotundus
How it was run: as §1

[13] = tested on: rice; test: Test B flood test rice; assay type: in vivo, Oryza sativa
How it was run: (§2)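 Flood test on plants grown to the 2-leaf stage; treated plants kept in greenhouse twelve to sixteen days, then visually rated against controls on a 0 (no effect) to 10 (complete control) scale.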

[14] = tested on: smallflower flatsedge; test: Test B flood test smallflower flatsedge; assay type: in vivo, Cyperus difformis
How it was run: as §2

[15] = tested on: duck salad; test: Test B flood test duck salad; assay type: in vivo, Heteranthera limosa
How it was run: as §2

[16] = tested on: bamyardgrass; test: Test B flood test barnyardgrass; assay type: in vivo, Echinochloa crus-galli
How it was run: as §2

[17] = Postemergence, Rate 62 g/ha, scale 0 to 10, 0 is no effect, 10 is complete control
[18] = Preemergence, Rate 62 g/ha, scale 0 to 10, 0 is no effect, 10 is complete control
[19] = Preemergence, Rate 125 g/ha, scale 0 to 10 (0 no effect, 10 complete control)
[20] = Preemergence, Rate 250 g/ha, scale of 0 to 10 where 0 is no effect and 10 is complete control
[21] = Preemergence, Rate 500 g/ha, scale 0 (no effect) to 10 (complete control)
[22] = Rate 125 g/ha, Postemergence, scale 0 to 10, 0 no effect, 10 complete control
[23] = Postemergence, Rate 250 g/ha, scale 0 to 10, 0 no effect, 10 complete control
[24] = Rate 500 g/ha, Postemergence, 0 to 10 scale (0 no effect, 10 complete control)
[25] = Rate 125 g/ha, Postemergence section (flood test species), scale 0 to 10, 0 no effect, 10 complete control
[26] = Rate 500 g/ha, Postemergence section of Table B, 0 to 10 scale (0 no effect, 10 complete control)
[27] = flood test, listed under Postemergence, Rate 250 g/ha, scale 0 to 10, 0 no effect, 10 complete control

In the case of `CCc1ccccc1-n1c(=O)on(C(=O)N(c2ccc(F)cc2F)C(C)C)c1=O` [Compound 45], the “Bedstraw plant response rating” value [1, 17] was 3, the “Plant response rating, Bedstraw” value [1, 18] was 0 and the “Plant response rating, Bedstraw” value [1, 19] was 0. The “Plant response rating, Bedstraw” value [1, 20] was 0, the “Bedstraw plant response rating” value [1, 21] was 0 and the “Bedstraw plant response rating” value [1, 22] was 5. For the same compound, the “Blackgrass plant response rating” value [2, 17] was 0, the “Blackgrass plant response rating” value [2, 23] was 4 and the “Plant response rating, Blackgrass” value [2, 18] was 0. For the same compound, the “Plant response rating, Blackgrass” value [2, 19] was 0, the “Plant response rating, Blackgrass” value [2, 20] was 0 and the “Blackgrass plant response rating” value [2, 21] was 0. For the same compound, the “Blackgrass plant response rating” value [2, 22] was 0, the “Blackgrass plant response rating” value [2, 24] was 4 and the “B. signalgrass plant response rating” value [3, 17] was 0. For the same compound, the “B. signalgrass plant response rating” value [3, 23] was 0, the “Plant response rating, B. signalgrass” value [3, 18] was 0 and the “Plant response rating, B. signalgrass” value [3, 19] was 2. The “Plant response rating, B. signalgrass” value [3, 20] was 4, the “B. signalgrass plant response rating” value [3, 21] was 9 and the “B. signalgrass plant response rating” value [3, 22] was 0. For the same compound, the “B. signalgrass plant response rating” value [3, 24] was 2, the “Corn plant response rating” value [4, 17] was 0 and the “Corn plant response rating” value [4, 23] was 0. For the same compound, the “Plant response rating, Corn” value [4, 18] was 0, the “Plant response rating, Corn” value [4, 19] was 0 and the “Plant response rating, Corn” value [4, 20] was 0. For the same compound, the “Corn plant response rating” value [4, 21] was 1, the “Corn plant response rating” value [4, 22] was 0 and the “Corn plant response rating” value [4, 24] was 0. The “Giant foxtail plant response rating” value [5, 17] was 0, the “Giant foxtail plant response rating” value [5, 23] was 9 and the “Plant response rating, Giant foxtail” value [5, 18] was 7. The “Plant response rating, Giant foxtail” value [5, 19] was 10, the “Plant response rating, Giant foxtail” value [5, 20] was 10 and the “Giant foxtail plant response rating” value [5, 21] was 10. For the same compound, the “Giant foxtail plant response rating” value [5, 22] was 0, the “Giant foxtail plant response rating” value [5, 24] was 9 and the “Morningglory plant response rating” value [6, 17] was 0. The “Morningglory plant response rating” value [6, 23] was 0, the “Plant response rating, Morningglory” value [6, 18] was 0 and the “Plant response rating, Morningglory” value [6, 19] was 0. For the same compound, the “Plant response rating, Morningglory” value [6, 20] was 0, the “Morningglory plant response rating” value [6, 21] was 0 and the “Morningglory plant response rating” value [6, 22] was 0. For the same compound, the “Morningglory plant response rating” value [6, 24] was 3, the “Redroot pigweed plant response rating” value [7, 17] was 0 and the “Redroot pigweed plant response rating” value [7, 23] was 0. The “Plant response rating, Redroot pigweed” value [7, 18] was 0, the “Plant response rating, Redroot pigweed” value [7, 19] was 0 and the “Plant response rating, Redroot pigweed” value [7, 20] was 8. The “Redroot pigweed plant response rating” value [7, 21] was 8, the “Redroot pigweed plant response rating” value [7, 22] was 0 and the “Redroot pigweed plant response rating” value [7, 24] was 0. For the same compound, the “Rape plant response rating” value [8, 17] was 0, the “Rape plant response rating” value [8, 23] was 0 and the “Plant response rating, Rape” value [8, 18] was 0. The “Plant response rating, Rape” value [8, 19] was 0, the “Plant response rating, Rape” value [8, 20] was 0 and the “Rape plant response rating” value [8, 21] was 0. For the same compound, the “Rape plant response rating” value [8, 22] was 0, the “Rape plant response rating” value [8, 24] was 0 and the “Soybean plant response rating” value [9, 17] was 1. The “Soybean plant response rating” value [9, 23] was 1, the “Plant response rating, Soybean” value [9, 18] was 0 and the “Plant response rating, Soybean” value [9, 19] was 0. For the same compound, the “Plant response rating, Soybean” value [9, 20] was 0, the “Soybean plant response rating” value [9, 21] was 3 and the “Soybean plant response rating” value [9, 22] was 1. The “Sugarbeets plant response rating” value [10, 17] was 0, the “Sugarbeets plant response rating” value [10, 23] was 1 and the “Plant response rating, Sugarbeets” value [10, 18] was 0. For the same compound, the “Plant response rating, Sugarbeets” value [10, 19] was 0, the “Plant response rating, Sugarbeets” value [10, 20] was 7 and the “Sugarbeets plant response rating” value [10, 21] was 8. For the same compound, the “Sugarbeets plant response rating” value [10, 22] was 0, the “Velvetleaf plant response rating” value [11, 17] was 0 and the “Velvetleaf plant response rating” value [11, 23] was 0. The “Plant response rating, Velvetleaf” value [11, 18] was 0, the “Plant response rating, Velvetleaf” value [11, 19] was 0 and the “Plant response rating, Velvetleaf” value [11, 20] was 0. For the same compound, the “Velvetleaf plant response rating” value [11, 21] was 3, the “Velvetleaf plant response rating” value [11, 22] was 0 and the “Nutsedge plant response rating” value [12, 17] was 0. The “Nutsedge plant response rating” value [12, 23] was 0, the “Plant response rating, Nutsedge” value [12, 18] was 0 and the “Plant response rating, Nutsedge” value [12, 19] was 0. For the same compound, the “Plant response rating, Nutsedge” value [12, 20] was 0, the “Nutsedge plant response rating” value [12, 21] was 0 and the “Nutsedge plant response rating” value [12, 22] was 0. For the same compound, the “Nutsedge plant response rating” value [12, 24] was 0, the “Rice plant response rating” value [13, 17] was 0 and the “Rice plant response rating” value [13, 25] was 0. The “Rice plant response rating” value [13, 26] was 0, the “Rice plant response rating” value [13, 27] was 0 and the “S. Flatsedge plant response rating” value [14, 17] was 0. For the same compound, the “S. Flatsedge plant response rating” value [14, 25] was 0, the “S. Flatsedge plant response rating” value [14, 27] was 0 and the “Ducksalad plant response rating” value [15, 17] was 0. The “Ducksalad plant response rating” value [15, 25] was 0, the “Ducksalad plant response rating” value [15, 26] was 0 and the “Ducksalad plant response rating” value [15, 27] was 0. For the same compound, the “Barnyardgrass plant response rating” value [16, 17] was 0, the “Barnyardgrass plant response rating” value [16, 25] was 0 and the “Barnyardgrass plant response rating” value [16, 26] was 0. For the same compound, the “Barnyardgrass plant response rating” value [16, 27] was 0.

Reference: patent US6737383B1, “Herbicidal oxadiazolidines” (priority 1999, dated 2004)
